From patent publication US9999616B2 (ZENITH EPIGENETICS LTD., priority 2013, dated 2018) come the findings set out here.

The test system of this assay is IL-6 and IL-17 and MCP-1 cytokines. As to the kind of experiment: In vivo efficacy in mouse endotoxemia model. The note with it: C57/Bl6 mice, 75 mg/kg oral, LPS 0.5 mg/kg i.p. The procedure:
Sub lethal doses of Endotoxin (E. Coli bacterial lipopolysaccharide) are administered to animals to produce a generalized inflammatory response which is monitored by increases in secreted cytokines. Compounds are administered to C57/Bl6 mice at T=4 hours orally at 75 mg/kg dose to evaluate inhibition in IL-6 and IL-17 and MCP-1 cytokines post 3-h challenge with lipopolysaccharide (LPS) at T=0 hours at 0.5 mg/kg dose intraperitoneally.

Each structure is given as a SMILES string.

With `Cc1noc(C)c1-c1cc(-c2c(C)noc2C)c2nc[nH]c2c1` [Example Compound 1, 4,4′-(1H-benzo[d]imidazole-4,6-diyl)bis(3,5-dimethylisoxazole)], the In vivo activity result is “Active”.
